The record followed here is patent publication US20090269795A1, “Mutant alpha4betadelta GABAA receptor and methods of treating anxiety or irritability” (priority 2007, published 2009).

One assay concerns the target T1, α1β2δ receptors (Rattus norvegicus, UniProt P62813+P63138).
T1 construct: expressed in transfected cells; host or cells: HEK-293
Kind of assay: Whole cell patch clamp of GABA-gated current, recombinant receptors in HEK-293 cells. The assay is classed as cell-based, rat α1, rat β2, human δ. The following applies: 30 nM THP. The source says: Recombinant receptors: Transfection—Plasmids obtained from S. Vicini (rat α1, α5, β2, β3 and γ2), P. Whiting (human α4 and δ) and N. L. Harrison (mouse α4) were propagated in E coli DH5α and prepared using Qiagen Maxi- or Midi-prep kits. (Rat, mouse and human α1, β2, β3 and γ2 subunits are identical or nearly identical.) All receptors were transfected at a 1:1:1 ratio, except α1β2γ2 (1:1:5)^12, α4βδ (5:1:5)^13 and α4β2γ2 (5:1:1). HEK-293 cells were maintained in medium (DMEM:Ham's F-12 1:1) supplemented with 10% fetal calf serum at 37° C. in a humid 5% CO2 atmosphere. Cells were transfected using calcium phosphate or Polyfect (Qiagen) and co-transfected with enhanced green fluorescent protein (ratio of DNA to eGFP was 6:1 or 10:1 depending on the DNA concentration) for visualization. α4-containing GABAA receptors required 2-3 d for maximal levels of expression; all other receptors were recorded 1-2 d after transfection. Because mouse α4 and human α4-containing receptors yielded the same results, the currents were averaged together.
Whole cell patch clamp recording—GABA-gated currents were recorded at room temperature (20-22° C.) at a holding potential of −50 mV^14. […] Currents were recorded using an Axopatch 1D amplifier (Axon Instruments) filtered at 2 kHz (four-pole Bessel filter) and detected at 10 kHz (pClamp 5.1). […]
Background: The patch-clamp technique gives a direct electrical read-out from membranes.

Another assay deals with thalamic relay neurons. Briefly: Tonic current in thalamic relay neurons, slice. It is filed as cell-based, mouse. The settings on record: pre-pubertal; n=6. On the procedure: Hippocampal slice: Slice preparation^20: Animals were rapidly decapitated, and the brains removed and cooled using an ice cold solution of artificial cerebrospinal fluid (aCSF) containing (in mM): NaCl 124, KCl 5, CaCl2 2, KH2PO4 1.25, MgSO4 2, NaHCO3 26, and glucose 10, saturated with 95% O2, 5% CO2 and buffered to a pH of 7.4. Following sectioning at 400 μm on a Leica oscillating microtome, slices were incubated for one hour in oxygenated aCSF. Slice recording: Pyramidal cells in CA1 hippocampal slice^20 or thalamic relay neurons in the ventral tier were visualized using a Leica DIC-infrared upright microscope, and recorded at −50 or −60 mV using whole cell patch clamp procedures at room temperature (20-22° C., Axopatch 200B amplifier, Axon Instruments, 20 kHz sampling frequency, 2 kHz 4-pole Bessel filter) and pClamp 9.2 software. Patch pipets were fabricated to yield open tip resistances of 2-4 MΩ. Internal solution in mM for ECl=−70 (or ECl=−30): K-gluconate 141.5 (O), KCl 0 (52.3), CsCl 8.5 (145), HEPES 5, EGTA 5, CaCl2-H2O 0.5, QX-314 5 (Calbiochem), Mg-ATP 2, Li-GTP 0.5, pH 7.2, 290 mOsm. […] Electrode capacitance and series resistance were monitored and compensated; access resistance was monitored throughout the experiment, and cells discarded if the access resistance >10 MΩ. […]

SMILES strings stand for the structures.

T1 sequence (P62813 28-455): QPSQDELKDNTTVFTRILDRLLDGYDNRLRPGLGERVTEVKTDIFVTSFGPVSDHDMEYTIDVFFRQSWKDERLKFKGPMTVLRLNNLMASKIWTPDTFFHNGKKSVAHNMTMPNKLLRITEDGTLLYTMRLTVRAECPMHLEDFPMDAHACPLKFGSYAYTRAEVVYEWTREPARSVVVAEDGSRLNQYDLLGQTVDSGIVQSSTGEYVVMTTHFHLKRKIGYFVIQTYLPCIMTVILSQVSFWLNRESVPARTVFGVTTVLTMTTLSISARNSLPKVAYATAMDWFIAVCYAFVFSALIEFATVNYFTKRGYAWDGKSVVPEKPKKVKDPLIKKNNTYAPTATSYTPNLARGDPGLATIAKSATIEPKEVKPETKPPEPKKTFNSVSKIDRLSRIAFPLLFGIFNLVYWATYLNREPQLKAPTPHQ
T1 sequence (P63138 25-474 limits assumed): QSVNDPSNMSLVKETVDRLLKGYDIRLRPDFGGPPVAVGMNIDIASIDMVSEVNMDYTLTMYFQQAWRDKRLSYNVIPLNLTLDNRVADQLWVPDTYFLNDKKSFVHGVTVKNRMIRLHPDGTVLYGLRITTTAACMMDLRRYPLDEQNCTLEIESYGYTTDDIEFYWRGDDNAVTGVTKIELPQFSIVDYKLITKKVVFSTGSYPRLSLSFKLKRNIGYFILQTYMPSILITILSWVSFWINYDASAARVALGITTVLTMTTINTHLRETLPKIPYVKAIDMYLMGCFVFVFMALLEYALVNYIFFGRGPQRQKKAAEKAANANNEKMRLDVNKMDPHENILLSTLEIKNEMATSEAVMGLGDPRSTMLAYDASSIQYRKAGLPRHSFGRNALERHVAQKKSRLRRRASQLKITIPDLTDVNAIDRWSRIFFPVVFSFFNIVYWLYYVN
T1 sequence (O14764 25-452 partner): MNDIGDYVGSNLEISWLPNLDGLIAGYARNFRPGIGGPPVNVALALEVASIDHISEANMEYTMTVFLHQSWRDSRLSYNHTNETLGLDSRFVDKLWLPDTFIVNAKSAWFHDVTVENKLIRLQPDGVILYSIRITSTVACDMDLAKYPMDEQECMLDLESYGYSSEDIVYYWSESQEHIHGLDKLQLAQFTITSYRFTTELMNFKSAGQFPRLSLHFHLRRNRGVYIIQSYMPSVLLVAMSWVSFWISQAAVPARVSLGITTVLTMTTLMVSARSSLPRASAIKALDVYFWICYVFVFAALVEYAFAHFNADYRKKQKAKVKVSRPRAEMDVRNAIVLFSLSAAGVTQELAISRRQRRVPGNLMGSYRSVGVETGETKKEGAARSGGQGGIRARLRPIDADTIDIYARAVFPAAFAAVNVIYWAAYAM

With `CC(=O)[C@H]1CC[C@H]2[C@@H]3CC[C@H]4C[C@H](O)CC[C@]4(C)[C@H]3CC[C@]12C` [THP, 3α-OH-5α[β]-pregnan-20-one], at α1β2δ receptors, the “effect on outward current” value was “either increased or had no effect”. Also, the “reduction of tonic current” value in the assay on thalamic relay neurons came to 57±12%.
